Patent US20020110808A1, “Toxicant-induced differential gene expression” (priority 2000, published 2002)

Key:
HepG2 cells [1] = assay: BrdU incorporation cell proliferation assay; assay type: cell-based; details: Homo sapiens
Experimental: HepG2 cells (see e.g., Aden et al., Nature 282:615-616 (1979)) (ATCC HB-8065) were maintained in DMEM/F-12 medium with 10% fetal bovine serum and 1% antibiotic/antimycotic. For routine culturing and mRNA preps, cells were grown in 75 cm^2 flasks and split every 4-5 days. For plate assays, cells were plated in 96-well microtiter plates at 1×10^5 cells per well in 100 μl of growth medium.
Depending on the desired exposure time, cell treatments began 3 or 4 days after splitting or plating. At this time, the cells were near or at confluency. […] Cell treatments were at 37° C.
Uptake of 5-bromo-2′-deoxyuridine (BrdU) was measured using the Cell Proliferation ELISA kit from Boehringer-Mannheim (Indianapolis, Ind.).
Cell proliferation assays based on measurement of BrdU incorporation were performed according to the manufacturer's instructions (Boehringer Mannheim “Cell Proliferation ELISA Kit”).

HepG2 cells [2] = assay: Dot blot array expression assay; details: 24 hr, two-fold threshold
Experimental: The quality of the PCR reactions was assessed by agarose gel electrophoresis. Human genomic DNA (Clontech) and PCR products were robotically dotted in 100 nl aliquots onto positively-charged nylon membranes using the BioDot instrument (Cartesian Technologies, Inc.). After uv-crosslinking, the membranes were rinsed in 2× SSC and allowed to air-dry. Prior to addition of labeled cDNA probes, membranes were washed in boiling 1% SDS, rinsed with 6× SSC, and incubated in 5 mL of 42° C. Microhyb solution (Research Genetics) for 2 hr. Ten minutes prior to addition of the probes, the Microhyb solution was replaced with an equal amount of fresh 42° C. Microhyb solution containing denatured human Cot-1 DNA (Gibco BRL) and poly(dA) primer (Research Genetics) (both at final concentrations of 1 ng/μl).
For each reverse transcription reaction, 2 μg of mRNA was incubated with oligo(dT) primer (200 ng/μl) at 70° C. for 10 minutes. Tubes were chilled and spun briefly. The following reagents (with the final concentrations in parentheses) were added: first strand buffer (1×), DTT (10 mM), dNTP mix (1 mM each of dATP, dGTP, dTTP), [α-^33P]dCTP (3.3 μCi/μl) and Superscript II Reverse Transcriptase (10 units/μL). The samples were kept at 37° C. for 1.5 hr. Unincorporated nucleotides were removed by spinning the reaction mixture through a G-50 column. […] Probe quality was assessed by electrophoresis on a 10% denaturing polyacrylamide minigel. Denatured probes were added directly to the Microhyb solution and hybridized overnight at 42° C. Membranes were washed twice under each of the following conditions: (1) 2× SSC/0.1% SDS at room temperature, 5 min; (2) 0.2× SSC/0.1% SDS at room temperature, 5 min; (3) 0.2× SSC/0.1% SDS at 42° C., 15 min, (4) 0.1× SSC/0.1% SDS at 68° C., 15 min. Membranes were then rinsed briefly in 2× SSC at room temperature, covered with Saran wrap, and exposed to storage phoshpor screens. After three days, screens were scanned using a Storm phosphorimager (Molecular Dynamics). Images were analyzed using ImageQuant software (Molecular Dynamics).
We employed a rapid dot blot assay as a secondary screen for gene expression changes. We tested each of the unique clones against each of the three treatments. […] For these clones, the dot blot assay functioned not as a confirmation assay but as an initial screen for differential expression. Dot blots were prepared by robotically arraying subclone-derived PCR products in quadruplicate onto positively charged nylon membranes. […] In general, each dot consisted of over 80 ng of PCR product, as estimated by inspection of the PCR reactions run on agarose gels. This high quantity of DNA ensured that saturation of spots, with consequent loss of quantitation, would not occur. Spots of genomic DNA were included on each filter to allow normalization between control and treated sample intensities.

HepG2 cells [3] = assay: cDNA array (GF200) expression profiling; assay type: cell-based, human; details: 20 mM acetaminophen, 16 mM caffeine, 100 mM thioacetamide
Experimental: Cells were grown in DMEM/F12 medium with 10% fetal bovine serum in tissue culture flasks for 3 days following splitting, at which time they were at or near confluency. […] For each treated sample, an untreated control flask was set up with the same medium. Following the treatment period, mRNA was isolated by affinity purification on oligo(dT) cellulose resin using the Poly(A) Pure mRNA isolation kit from Ambion. RNA quality was assessed by agarose gel electrophoresis, and yields were determined by absorbance at 260 nm.
Radiolabeled cDNA for array hybridizations were prepared as follows. To a solution of 2 μg of RNA in 8 μl DEPC-treated water was added 2 μl of 1 μg/μl oligo(dT) (10-20 mer mixture, Research Genetics). After incubation for 10 min at 70° C., the solution was chilled on ice for 2 min, and then added to 6 μl of 5× first strand buffer (250 mM Tris-HCl (pH 8.3), 375 mM KCl, 15 mM MgCl2; Gibco-BRL), 1 μl of 0.1M DTT, 1.5 μl dNTP mix (20 mM each dATP, dGTP and dTTP), 10 μl of 10 mCi/ml [α-^33P]dCTP (1000 Ci/mmol, Amersham), and 1.5 μl of 200 U/μl reverse transcriptase (Superscript II, Gibco-BRL). Following a 90 min incubation at 37° C., cDNA targets were purified by passage through G-50 Sephadex spin columns (Pharmacia) or Bio-Spin 6 columns (BioRad).
GF200 cDNA arrays (Research Genetics) were washed in 0.5% boiling SDS for 5 min and prehybridized for 3 hrs at 42° C. in 5 ml MicroHyb solution (Research Genetics) containing 5 μl of 1 μg/ml poly(dA) (Research Genetics) and 5 μl of 1 μg/ml human Cot-I DNA (Gibco-BRL) that was denatured for 3 min at 100° C. prior to use. Labeled target nucleic acids, boiled for 3 min, were added directly, and hybridization was allowed to proceed for 16-18 hr at 42° C. in roller bottles in hybridization ovens. Arrays were washed twice in 2× SSC, 1% SDS at room temperature for 2 min, and then twice in 0.5× SSC, 1% SDS at 65° C. for 20 min. Arrays were exposed to storage phosphor screens for 3 days and scanned using a phosphorimager (Molecular Dynamics). Arrays were stripped for reuse by placing in boiling 0.5% SDS and then incubating for 1.5 hr with shaking at room temperature, allowing to solution to cool. After stripping, arrays were exposed to storage phosphor screens overnight to confirm loss of signal.
Spot intensities were determined using Pathways software (Research Genetics). Data from quadruplicate sets of hybridizations were normalized by local regression using NLR software (Tom Kepler, North Carolina State University). Cluster analysis was carried out using the Clustan Graphics software package from Clustan Limited (Edinburgh).

Cn1c(=O)c2c(ncn2C)n(C)c1=O [caffeine]
inhibition at 16000 µM (HepG2 cells [1]; HepG2, 24 h, read-out: Inhibition of BrdU uptake (cell proliferation)): 67 to 80%
IC50 (HepG2 cells [1]; HepG2, read-out: IC50, BrdU incorporation in HepG2 cells): ~6 mM
Number of 27 unconfirmed or non-matching clones showing an expression change (HepG2 cells [2]): 7
Number of genes with statistically significant (p<0.05) change in expression in three or more adjacent time points (HepG2 cells [3]; 1 to 24 hr time course): 158
Global differential gene expression (rms) over time (HepG2 cells [3]; 1 to 24 hr): few changes until 6 hr, after which overall differential expression is fairly constant
